Laboratory results: publication PMC11106165, “Repurposing the KCa3.1 Blocker Senicapoc for Ischemic Stroke” (Translational Stroke Research, 2023)

Legend:
rats or mice, tMCAO = tested on: rats or mice, tMCAO; design: method as in PMID 21750563, PMID 26661208; conditions: cited from earlier work
human tPA = target: T1, human tPA (Homo sapiens, UniProt P00750); experiment: Chromogenic tPA activity assay; type: biochemical; conditions: 30-min assay
T1 construct: purchased Abcam ab108905
Text: The commercially available tPA Activity Assay Kit (Abcam, ab108905) was used to assess whether senicapoc and TRAM-34 affect the ability of human tPA to cleave its substrate plasminogen similar to protocols published by Lapchak and Boitano [38] and Lapchak et al.. Reactions were run in optically clear flat-bottom 96-well plates (Corning, Catalog #3904). Human plasminogen activator inhibitor-1 (PAI-1; Sigma-Aldrich CC4075) was used as a positive control. Human plasminogen, the chromogenic plasmin substrate, and human tPA were included in the tPA Activity Assay Kit. […] The reactions were pre-incubated at 37 °C for 5 min prior to the addition of the chromogenic plasmin substrate and subsequently placed in a heated SpectraMax M5 spectrophotometer. Absorbances at 405 nm were measured every 30 s for 30 min.

[1] = design: method as in PMID 22675649; conditions: cited from earlier work

T1 sequence (P00750 36-562): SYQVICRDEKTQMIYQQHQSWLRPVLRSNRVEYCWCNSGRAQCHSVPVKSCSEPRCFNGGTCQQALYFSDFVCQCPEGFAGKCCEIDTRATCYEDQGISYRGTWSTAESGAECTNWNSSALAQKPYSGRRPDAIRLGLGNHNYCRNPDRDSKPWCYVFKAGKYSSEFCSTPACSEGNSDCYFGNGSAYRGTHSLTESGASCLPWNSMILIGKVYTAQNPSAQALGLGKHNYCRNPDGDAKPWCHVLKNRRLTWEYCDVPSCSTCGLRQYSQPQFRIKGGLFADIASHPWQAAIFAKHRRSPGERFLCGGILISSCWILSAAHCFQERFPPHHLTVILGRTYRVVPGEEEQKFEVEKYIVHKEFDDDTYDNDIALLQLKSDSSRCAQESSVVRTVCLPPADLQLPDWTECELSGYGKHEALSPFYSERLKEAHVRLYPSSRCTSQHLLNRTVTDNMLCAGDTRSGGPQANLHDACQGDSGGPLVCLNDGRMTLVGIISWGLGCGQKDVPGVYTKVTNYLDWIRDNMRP

Row | effect on tPA activity (absorbance at 405 nm) (human tPA; positive control) | Molecule | reduction in infarct area (rats or mice, tMCAO; MCAO, 11 animals per group) | infarct area (rats or mice, tMCAO; rats or mice, 8 days after tMCAO with reperfusion) | effect on tPA activity (absorbance at 405 nm) (human tPA; 0.5 μM and 5 μM, PBS with 10% human serum) | metabolic stability [1] | oral availability [1] | half-life ([1]; rats and primates)
1 | – | Clc1ccccc1C(c1ccccc1)(c1ccccc1)n1cccn1 [TRAM-34] | ~ 50% | significantly smaller infarct areas | do not interfere with tPA activity | metabolic instability | not orally available | ~ 2 h
2 | strongly inhibited | plasminogen activator inhibitor-1 [PAI-1] | – | – | – | – | – | –
